Results: patent publication US7781428B2 (Pfizer Inc., priority 2006, dated 2010)

target: T1, mineralocorticoid receptor (MR) (Homo sapiens, UniProt P08235); assay: Cell-based Gal4 response element-controlled luciferase reporter assay (MR antagonism); settings: Huh7 human liver cells transfected with Gal4 DBD-MR LBD fusion and luciferase reporter; block of agonist-induced activation; overnight incubation
T1 construct: expressed in transfected cells; host or cells: Huh7 (human liver cells)
T1 sequence (P08235 726-964 limits assumed): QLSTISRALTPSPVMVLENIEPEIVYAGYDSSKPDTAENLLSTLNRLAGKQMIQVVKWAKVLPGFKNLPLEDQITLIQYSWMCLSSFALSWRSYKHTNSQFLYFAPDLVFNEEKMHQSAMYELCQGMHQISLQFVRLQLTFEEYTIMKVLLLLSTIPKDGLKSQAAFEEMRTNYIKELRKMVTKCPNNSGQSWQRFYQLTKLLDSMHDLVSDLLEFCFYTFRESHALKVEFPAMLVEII
Procedure, shortened: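 Transiently transfected Huh7 cells were treated with agonist at 70-80% of full activation plus compounds for 18-20 h in medium with charcoal/dextran-stripped serum. Luciferase read-out was normalized to β-galactosidase (ONPG, OD420); IC50 came from curve fitting.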

Q: Which IC50 does the source give for `Cc1cc(N2N=C3c4ccc(C(=O)O)cc4CC[C@H]3[C@H]2c2ccc(F)cc2)ccc1C#N` [Example 8, (3S,3aS)-2-(4-cyano-3-methylphenyl)-3-(4-fluorophenyl)-3,3a,4,5-tetrahydro-2H-benzo[g]indazole-7-carboxylic acid] here?
A: The IC50 was 2740 nM.

Q: With `N#Cc1ccc(N2N=C3c4ccc(C(=O)O)cc4OCC3C2c2ccc(F)cc2)cc1Cl` (racemic) [Example 55, 2-(3-chloro-4-cyanophenyl)-3-(4-fluorophenyl)-2,3,3a,4-tetrahydrochromeno[4,3-c]pyrazole-7-carboxylic acid] as the compound, how does the IC50 read?
A: Its IC50 is 849 nM.

Q: For `N#Cc1ccc(N2N=C3c4ccc(C(=O)O)cc4OC[C@@H]3[C@@H]2c2ccc(F)cc2)cc1Cl` [Example 56, (3R,3aR)-2-(3-chloro-4-cyanophenyl)-3-(4-fluorophenyl)-2,3,3a,4-tetrahydrochromeno[4,3-c]pyrazole-7-carboxylic acid], which IC50 is on record?
A: The IC50 was 302 nM.

Q: How did the IC50 turn out when `N#Cc1ccc(N2N=C3c4ccc(C(=O)O)cc4CCC3C2c2ccc(F)cc2)cc1C(F)(F)F` (racemic) [Example 9, 2-[4-cyano-3-(trifluoromethyl)phenyl]-3-(4-fluorophenyl)-3,3a,4,5-tetrahydro-2H-benzo[g]indazole-7-carboxylic acid] was run?
A: The IC50 was 170 nM.

Q: How did the IC50 turn out when `N#Cc1ccc(N2N=C3c4ccc(C(=O)NCCC(N)=O)cc4CC[C@@H]3[C@@H]2c2ccc(F)cc2)cc1Cl` (racemic) [Example 102, (±)-(3RS,3aRS)—N-(3-amino-3-oxopropyl)-2-(3-chloro-4-cyanophenyl)-3-(4-fluorophenyl)-3,3a,4,5-tetrahydro-2H-benzo[g]indazole-7-carboxamide] was run?
A: The IC50 was 35 nM.

Q: How did the IC50 turn out when `C[S+]([O-])CCNC(=O)c1ccc2c(c1)CC[C@H]1C2=NN(c2ccc(C#N)c(Cl)c2)[C@H]1C1CCOCC1` (mixture of isomers) [Example 99] was run?
A: The IC50 was 14 nM.

Q: How did the IC50 turn out when `Cc1cc(N2N=C3c4ccc(C(=O)O)cc4OCC3C2C2CCCC2)ccc1C#N` (racemic) [Example 61, 2-(4-cyano-3-methylphenyl)-3-cyclopentyl-2,3,3a,4-tetrahydrochromeno[4,3-c]pyrazole-7-carboxylic acid] was run?
A: Its IC50 is 39 nM.

Q: `N#Cc1ccc(N2N=C3c4ccc(C(=O)O)cc4CCC3C2C2CCCC2)cc1` (racemic) [Example 18, 2-(4-cyanophenyl)-3-cyclopentyl-3,3a,4,5-tetrahydro-2H-benzo[g]indazole-7-carboxylic acid] was tested. Which IC50 did it give?
A: The IC50 was 89 nM.

Q: For `CS(=O)(=O)NC(=O)c1ccc2c(c1)CC[C@H]1C2=NN(c2ccc(C#N)c(Cl)c2)[C@H]1c1ccc(F)cc1` (racemic) [Example 113, (±)-(3RS,3aRS)-2-(3-chloro-4-cyanophenyl)-3-(4-fluorophenyl)-N-(methylsulfonyl)-3,3a,4,5-tetrahydro-2H-benzo[g]indazole-7-carboxamide], which IC50 is on record?
A: Its IC50 is 995 nM.

Q: With `CS(=O)(=O)CCNC(=O)c1ccc2c(c1)CCC1C2=NN(c2ccc(C#N)c(Cl)c2)C1c1ccc(F)cc1` (racemic) [Example 96, 2-(3-chloro-4-cyanophenyl)-3-(4-fluorophenyl)-N-(2-(methylsulfonyl)ethyl)-3,3a,4,5-tetrahydro-2H-benzo[g]indazole-7-carboxamide] as the compound, how does the IC50 read?
A: The IC50 was 12 nM.

Q: With `N#Cc1ccc(N2N=C3c4ccc(C(=O)O)cc4CCC3C2C2=CCCC2)cc1` (racemic) [Example 50, 2-(4-cyanophenyl)-3-cyclopent-1-en-1-yl-3,3a,4,5-tetrahydro-2H-benzo[g]indazole-7-carboxylic acid] as the compound, how does the IC50 read?
A: The IC50 was 205 nM.

Q: Which IC50 does the source give for `N#Cc1ccc(N2N=C3c4ccc(C(=O)O)cc4OC[C@H]3[C@H]2C2CCCC2)cc1Cl` [Example 66, (3R,3aS)-2-(3-chloro-4-cyanophenyl)-3-cyclopentyl-2,3,3a,4-tetrahydrochromeno[4,3-c]pyrazole-7-carboxylic acid] here?
A: Its IC50 is 3350 nM.

Q: Which IC50 does the source give for `N#Cc1ccc(N2N=C3c4ccc(C(=O)O)cc4OCC3C2C2CCCC2)cc1` (racemic) [Example 70, 2-(4-cyanophenyl)-3-cyclopentyl-2,3,3a,4-tetrahydrochromeno[4,3-c]pyrazole-7-carboxylic acid] here?
A: The IC50 was 906 nM.

Q: How did the IC50 turn out when `N#Cc1ccc(N2N=C3c4ccc(C(=O)O)cc4OC[C@@H]3[C@@H]2C2CCCC2)cc1` [Example 71, (3S,3aR)-2-(4-cyanophenyl)-3-cyclopentyl-2,3,3a,4-tetrahydrochromeno[4,3-c]pyrazole-7-carboxylic acid] was run?
A: The IC50 was 205 nM.

Q: For `Cc1cc(N2N=C3c4ccc(C(=O)O)cc4CCC3C2C2CCCC2)ccc1C#N` (racemic) [Example 21, 2-(4-cyano-3-methylphenyl)-3-cyclopentyl-3,3a,4,5-tetrahydro-2H-benzo[g]indazole-7-carboxylic acid], which IC50 is on record?
A: Its IC50 is 4 nM.

Q: With `N#Cc1ccc(N2N=C3c4ccc(O)cc4CC[C@@H]3[C@@H]2c2ccc(F)cc2)cc1Cl` [Example 87, 2-chloro-4-((3R,3aR)-3-(4-fluorophenyl)-7-hydroxy-3,3a,4,5-tetrahydrobenzo[g]indazol-2-yl)benzonitrile] as the compound, how does the IC50 read?
A: Its IC50 is 36 nM.

Q: How did the IC50 turn out when `Cc1cc(N2N=C3c4ccc(C(=O)O)cc4OC[C@@H]3[C@@H]2C2=CCCC2)ccc1C#N` (racemic) [Example 77, (±)-(3RS,3aRS)-2-(4-cyano-3-methylphenyl)-3-cyclopentenyl-2,3,3a,4-tetrahydrochromeno[4,3-c]pyrazole-7-carboxylic acid] was run?
A: Its IC50 is 13 nM.

Q: `N#Cc1ccc(N2N=C3c4ccc(O)cc4CC[C@H]3[C@H]2c2ccc(F)cc2)cc1Cl` [Example 88, 2-chloro-4-((3S,3aS)-3-(4-fluorophenyl)-7-hydroxy-3,3a,4,5-tetrahydrobenzo[g]indazol-2-yl)benzonitrile] was tested. Which IC50 did it give?
A: Its IC50 is greater than 1000 nM.

Q: `N#Cc1ccc(N2N=C3c4ccc(C(=O)NCCS(N)(=O)=O)cc4CC[C@@H]3[C@@H]2C2CCOCC2)cc1Cl` (racemic) [Example 105, (±)-(3SR,3aRS)—N-[2-(aminosulfonyl)ethyl]-2-(3-chloro-4-cyanophenyl)-3-(tetrahydro-2H-pyran-4-yl)-3,3a,4,5-tetrahydro-2H-benzo[g]indazole-7-carboxamide] was tested. Which IC50 did it give?
A: The IC50 was 141 nM.

Q: `N#Cc1ccc(N2N=C3c4ccc(C(=O)NCCCC(=O)O)cc4CC[C@@H]3[C@@H]2c2ccc(F)cc2)cc1Cl` (racemic) [Example 106, (±)-4-((3RS,3aRS)-2-(3-chloro-4-cyanophenyl)-3-(4-fluorophenyl)-3,3a,4,5-tetrahydro-2H-benzo[g]indazole-7-carboxamido)butanoic acid] was tested. Which IC50 did it give?
A: The IC50 was 312 nM.

Q: With `N#Cc1ccc(N2N=C3c4ccc(C(=O)O)cc4CC[C@@H]3[C@@H]2C2CCCC2)cc1` [Example 19, (3S,3aR)-2-(4-cyanophenyl)-3-cyclopentyl-3,3a,4,5-tetrahydro-2H-benzo[g]indazole-7-carboxylic acid] as the compound, how does the IC50 read?
A: The IC50 was 37.6 nM.

Q: With `COc1cc(N2N=C3c4ccc(C(=O)O)cc4CC[C@@H]3[C@@H]2C2CCCC2)ccc1C#N` [Example 26, (3S,3aR)-2-(4-cyano-3-methoxyphenyl)-3-cyclopentyl-3,3a,4,5-tetrahydro-2H-benzo[g]indazole-7-carboxylic acid] as the compound, how does the IC50 read?
A: The IC50 was 13 nM.

Q: With `N#Cc1ccc(N2N=C3c4ccc(C(=O)O)cc4CCC3C2c2ccc(F)cc2)cc1` (racemic) [Example 10, 2-(4-cyanophenyl)-3-(4-fluorophenyl)-3,3a,4,5-tetrahydro-2H-benzo[g]indazole-7-carboxylic acid] as the compound, how does the IC50 read?
A: Its IC50 is 553 nM.

Q: For `N#Cc1ccc(N2N=C3c4ccc(C(=O)O)cc4OCC3C2c2ccc(F)cc2)cc1` (racemic) [Example 58, 2-(4-cyanophenyl)-3-(4-fluorophenyl)-2,3,3a,4-tetrahydrochromeno[4,3-c]pyrazole-7-carboxylic acid], which IC50 is on record?
A: The IC50 was 3180 nM.

Q: `N#Cc1ccc(N2N=C3c4ccc(C(=O)O)cc4CC[C@@H]3[C@@H]2c2ccc(F)cc2)cc1` [Example 11, (3R,3aR)-2-(4-cyanophenyl)-3-(4-fluorophenyl)-3,3a,4,5-tetrahydro-2H-benzo[g]indazole-7-carboxylic acid] was tested. Which IC50 did it give?
A: The IC50 was 205 nM.

Q: Which IC50 does the source give for `N#Cc1ccc(N2N=C3c4ccc(C(=O)O)cc4OC[C@@H]3[C@@H]2C2CCCC2)cc1Cl` [Example 65, (3S,3aR)-2-(3-chloro-4-cyanophenyl)-3-cyclopentyl-2,3,3a,4-tetrahydrochromeno[4,3-c]pyrazole-7-carboxylic acid] here?
A: Its IC50 is 38 nM.

Q: `Cc1nc(N2N=C3c4ccc(C(=O)O)cc4CCC3C2C2CCCC2)ccc1C#N` (racemic) [Example 24, 2-(5-cyano-6-methylpyridin-2-yl)-3-cyclopentyl-3,3a,4,5-tetrahydro-2H-benzo[g]indazole-7-carboxylic acid] was tested. Which IC50 did it give?
A: The IC50 was 8 nM.

Q: Which IC50 does the source give for `Cc1cc(N2N=C3c4ccc(O)cc4CC[C@@H]3[C@@H]2c2ccc(F)cc2)ccc1C#N` [Example 81, 4-((3R,3aR)-3-(4-fluorophenyl)-7-hydroxy-3,3a,4,5-tetrahydrobenzo[g]indazol-2-yl)-2-methylbenzonitrile] here?
A: The IC50 was 35 nM.

Q: `N#Cc1ccc(N2N=C3c4ccc(O)cc4CC[C@@H]3[C@@H]2c2ccc(F)cc2)cc1C(F)(F)F` [Example 84, 4-((3R,3aR)-3-(4-fluorophenyl)-7-hydroxy-3,3a,4,5-tetrahydrobenzo[g]indazol-2-yl)-2-(trifluoromethyl)benzonitrile] was tested. Which IC50 did it give?
A: The IC50 was 113 nM.

Q: With `N#Cc1ccc(N2N=C3c4ccc(C(=O)O)cc4OC[C@H]3[C@H]2c2ccc(F)cc2)cc1Cl` [Example 57, (3S,3aS)-2-(3-chloro-4-cyanophenyl)-3-(4-fluorophenyl)-2,3,3a,4-tetrahydrochromeno[4,3-c]pyrazole-7-carboxylic acid] as the compound, how does the IC50 read?
A: The IC50 was 3510 nM.

Q: Which IC50 does the source give for `N#Cc1ccc(N2N=C3c4ccc(C(=O)O)cc4OCC3C2C2=CCCC2)cc1Cl` (racemic) [Example 78, (±)-(3RS,3aRS)-2-(3-chloro-4-cyanophenyl)-3-cyclopentenyl-2,3,3a,4-tetrahydrochromeno[4,3-c]pyrazole-7-carboxylic acid] here?
A: The IC50 was 70 nM.
